Reference: patent publication US8071797B2 (priority 2008, dated 2011)

biological target: T1, HCV polymerase (NS5B570n-Con1) (Hepatitis C virus genotype 1b, UniProt Q9WMX2); experiment: HCV NS5B RNA polymerase activity assay; format: biochemical, HCV Con1 strain; conditions: IC50 NS5B polymerase assay, Table I
T1 construct: contains a 21 amino acid deletion at the C-terminus relative to the full-length HCV polymerase; 6-histidine (N); made in house; host or cells: E. coli BL21 (DE) pLysS
Description: The enzymatic activity of HCV polymerase (NS5B570n-Con1) was measured as the incorporation of radiolabeled nucleotide monophosphates into acid insoluble RNA products. Unincorporated radiolabeled substrate was removed by filtration and scintillant was added to the washed and dried filter plate containing radiolabeled RNA product. The amount of RNA product generated by NS5B570-Con1 at the end of the reaction was directly proportional to the amount of light emitted by the scintillant.
The N-terminal 6-histidine tagged HCV polymerase, derived from HCV Con1 strain, genotype 1b (NS5B570n-Con1) contains a 21 amino acid deletion at the C-terminus relative to the full-length HCV polymerase and was purified from E. coli strain BL21 (DE) pLysS. The construct, containing the coding sequence of HCV NS5B Con1 (GenBank accession number AJ242654) was inserted into the plasmid construct pETI 7b, downstream of a T7 promoter expression cassette and transformed into E. coli. A single colony was grown overnight as a starter culture and later used inoculate 10 L of LB media supplemented with 100 μg/mL ampicillin at 37° C. Protein expression was induced by the addition of 0.25 mM isopropyl-β-D-thiogalactopyranoside (IPTG) when optical density at […] of the culture was between 0.6 and 0.8 and cells were harvested after 16 to 18 h at 30° C. NS5B570n-Con1 was purified to homogeneity using a three-step protocol including subsequent column chromatography on Ni-NTA, SP-Sepharose HP and Superdex 75 resins.
Each 50 μl enzymatic reaction contained 20 nM RNA template derived from the complementary sequence of the Internal Ribosome Entry Site (cIRES), 20 nM NS5B570n-Con1 enzyme, 0.5 μCi of tritiated UTP (Perkin Elmer catalog no. TRK-412; specific activity: 30 to 60 Ci/mmol; stock solution concentration from 7.5×10^-5 M to 20.6×10^-6 M), 1 μM each ATP, CTP, and GTP, 40 mM Tris-HCl pH 8.0, 40 mM NaCl, 4 mM DTT (dithiothreitol), 4 mM MgCl2, and 5 μl of compound serial diluted in DMSO. Reaction mixtures were assembled in 96-well filter plates (cat #MADVN0B, Millipore Co.) and incubated for 2 h at 30° C. Reactions were stopped by addition of 10% final (v/v) trichloroacetic acid and incubated for 40 min at 4° C. Reactions were filtered, washed with 8 reaction volumes of 10% (v/v) trichloroacetic acetic acid, 4 reaction volumes of 70% (v/v) ethanol, air dried, and 25 μl of scintillant (Microscint 20, Perkin-Elmer) was added to each reaction well.
The amount of light emitted from the scintillant was converted to counts per minute (CPM) on a Topcount® plate reader (Perkin-Elmer, Energy Range: Low, Efficiency Mode Normal, Count Time: 1 min, Background Subtract: none, Cross talk reduction: Off).
Data was analyzed in Excel® (Microsoft®) and ActivityBase® (idbsg). The reaction in the absence of enzyme was used to determine the background signal, which was subtracted from the enzymatic reactions. Positive control reactions were performed in the absence of compound, from which the background corrected activity was set as 100% polymerase activity. All data was expressed as a percentage of the positive control. The compound concentration at which the enzyme-catalyzed rate of RNA synthesis was reduced by 50% (IC50) was calculated by fitting
[formula] equation (t) to the data.where “Y” corresponds to the relative enzyme activity (in %), “% Min” is the residual relative activity at saturating compound concentration, “% Max” is the relative maximum enzymatic activity, “X” corresponds to the compound concentration, and “S” is the Hill coefficient (or slope).

SMILES	IC50
CNC(=O)c1c(-c2ccc(Oc3ccc(F)cc3)cc2)oc2cc(N(CC3CCOCC3)S(C)(=O)=O)c(C3CC3)cc12 [Compound I-56]	0.157 µM
CNC(=O)c1c(-c2ccc(Oc3ccc(F)cc3)cc2)oc2cc(C(C)(C)O)c(OC)cc12 [Compound I-103]	0.037 µM
CNC(=O)c1c(-c2ccc(Nc3ccc(Cl)cc3)cc2)oc2cc(N(CCO)S(C)(=O)=O)c(OC)cc12 [Compound I-3]	0.214 µM
CNC(=O)c1c(-c2ccc(Oc3ccc(F)cc3)cc2)oc2cc(N([C@H]3CC[C@@H](O)CC3)S(C)(=O)=O)c(C3CC3)cc12 [Compound I-99]	0.023 µM
CNC(=O)c1c(-c2ccc(Oc3ccc(F)cc3)cc2)oc2cc(N(CC(C)O)S(C)(=O)=O)c(C3CC3)cc12 (stereo not drawn) [Compound I-68]	0.026 µM
CNC(=O)c1c(-c2ccc(Oc3ccc(F)cc3)cc2)oc2cc(N(C3CNC3)S(C)(=O)=O)c(C3CC3)cc12 [Compound I-75]	0.3 µM
CNC(=O)c1c(-c2ccc(Oc3ccc(F)cc3)nc2)oc2cc(N(CCO)S(C)(=O)=O)c(OC)cc12 [Compound I-125, 2-[6-(4-Fluoro-phenoxy)-pyridin-3-yl]-6-[(2-hydroxy-ethyl)-methanesulfonyl-amino]-5-methoxy-benzofuran-3-carboxylic acid methylamide]	0.49 µM
CCc1cc2c(C(=O)NC)c(-c3ccc(Oc4ccc(F)cc4)cc3)oc2cc1N(C)S(C)(=O)=O [Compound I-52]	0.128 µM
CNC(=O)c1c(-c2ccc(Oc3ccc(F)cc3)cc2)oc2cc(NS(C)(=O)=O)c(OC)cc12 [Compound I-43]	0.238 µM
CNC(=O)c1c(-c2ccc(Oc3ccc(F)cc3)cc2)oc2cc(N(C(C)CN)S(C)(=O)=O)c(C3CC3)cc12 (stereo not drawn) [Compound I-95]	0.06 µM
CNC(=O)c1c(-c2ccc(Oc3ccc(F)cc3)cc2)oc2cc(N(Cc3ccncc3)S(C)(=O)=O)c(C3CC3)cc12 [Compound I-71]	0.009 µM
CNC(=O)c1c(-c2ccc(Nc3ccccc3)cc2)oc2cc(N(CCO)S(C)(=O)=O)c(OC(C)C)cc12 [Compound I-28, 6-[(2-Hydroxy-ethyl)-methanesulfonyl-amino]-5-isopropoxy-2-(4-phenylamino-phenyl)-benzofuran-3-carboxylic acid methylamide]	0.042 µM
CNC(=O)c1c(-c2ccc(Oc3ccc(F)cc3)cc2)oc2cc(N(CC(N)=O)S(C)(=O)=O)c(C3CC3)cc12 [Compound I-73]	0.056 µM
CNC(=O)c1c(-c2ccc(Nc3cccc(OC)c3)cc2)oc2cc(N(CCO)S(C)(=O)=O)c(OC)cc12 [Compound I-7]	0.136 µM
CNC(=O)c1c(-c2ccc(Oc3ccccc3)cc2)oc2cc(-c3ccc[nH]3)c(C3CC3)cc12 [Compound I-89, 5-Cyclopropyl-2-(4-phenoxy-phenyl)-6-(1H-pyrrol-2-yl)-benzofuran-3-carboxylic acid methylamide]	0.722 µM
CNC(=O)c1c(-c2ccc(Oc3ccc(F)cc3)cc2)oc2cc(N(CC(O)CN)S(C)(=O)=O)c(C3CC3)cc12 (stereo not drawn) [Compound I-97, 6-[(3-Amino-2-hydroxy-propyl)-methanesulfonyl-amino]-5-cyclopropyl-2-[4-(4-fluoro-phenoxy)-phenyl]-benzofuran-3-carboxylic acid methylamide]	0.048 µM
CNC(=O)c1c(-c2ccc(Nc3cccnc3)cc2)oc2cc(N(CCO)S(C)(=O)=O)c(OC)cc12 [Compound I-122]	2.05 µM
CNC(=O)c1c(-c2ccc(Nc3ccc(F)cc3F)cc2)oc2cc(N(CCO)S(C)(=O)=O)c(OC)cc12 [Compound I-14]	0.024 µM
CNC(=O)c1c(-c2ccc(Oc3ccccc3)cc2)oc2cc(-c3c(C)n[nH]c3C)c(C3CC3)cc12 [Compound I-101]	0.318 µM
CNC(=O)c1c(-c2ccc(Oc3ccc(F)cc3)cc2)oc2cc(C(C)(C)O)c(C3CC3)cc12 [Compound I-110, 5-Cyclopropyl-2-[4-(4-fluoro-phenoxy)-phenyl]-6-(1-hydroxy-1-methyl-ethyl)-benzofuran-3-carboxylic acid methylamide]	0.039 µM

SMILES	IC50
CCN(c1cc2oc(-c3ccc(Nc4ccc(F)cc4)cc3)c(C(=O)NC)c2cc1OC)S(C)(=O)=O [Compound I-17]	0.081 µM
CCN(c1cc2oc(-c3ccc(Oc4ccccc4F)cc3)c(C(=O)NC)c2cc1OC)S(C)(=O)=O [Compound I-23]	0.052 µM
CNC(=O)c1c(-c2ccc(Oc3ccc(F)cc3)cc2)oc2cc(N(CCCN(C)S(C)(=O)=O)S(C)(=O)=O)c(C3CC3)cc12 [Compound I-117]	0.011 µM
CNC(=O)c1c(-c2ccc(Oc3ccccc3F)cc2)oc2cc(N(CCO)S(C)(=O)=O)c(C3CC3)cc12 [Compound I-61]	0.035 µM
CNC(=O)c1c(-c2ccc(Oc3ccccc3)cc2)oc2cc(C(C)=O)c(C3CC3)cc12 [Compound I-86]	0.362 µM
CNC(=O)c1c(-c2ccc(Oc3ccc(F)cc3)cc2)oc2cc(N(CCSC)S(C)(=O)=O)c(C3CC3)cc12 [Compound I-81, 5-Cyclopropyl-2-[4-(4-fluoro-phenoxy)-phenyl]-6-[methanesulfonyl-(2-methylsulfanyl-ethyl)-amino]-benzofuran-3-carboxylic acid methylamide]	0.016 µM
CNC(=O)c1c(-c2ccc(Oc3ccc(F)cc3)cc2)oc2cc(N(CCN)S(C)(=O)=O)c(OC)cc12 [Compound I-53]	0.25 µM
CNC(=O)c1c(-c2ccc(Oc3ccc(F)cc3)cc2)oc2cc(N(CCCC#N)S(C)(=O)=O)c(C3CC3)cc12 [Compound I-96]	0.007 µM
CNC(=O)c1c(-c2ccc(Oc3ccc(F)cc3)cc2)oc2cc(N(CCCCN)S(C)(=O)=O)c(C3CC3)cc12 [Compound I-92]	0.056 µM
CNC(=O)c1c(-c2ccc(Oc3ccc(F)cc3F)cc2)oc2cc(N(CCO)S(C)(=O)=O)c(OC(C)C)cc12 [Compound I-39]	0.195 µM
CNC(=O)c1c(-c2ccc(Nc3ccccc3F)cc2)oc2cc(N(CCO)S(C)(=O)=O)c(OC(C)C)cc12 [Compound I-34]	0.064 µM
CNC(=O)c1c(-c2ccc(Oc3ccc(F)cc3)cc2)oc2cc(N(C3CCOCC3)S(C)(=O)=O)c(C3CC3)cc12 [Compound I-72]	0.591 µM
CNC(=O)c1c(-c2ccc(Oc3ccc(F)cc3)cc2)oc2cc(C3CCCN3S(C)(=O)=O)c(OC)cc12 (stereo not drawn) [Compound I-112, 2-[4-(4-Fluoro-phenoxy)-phenyl]-6-(1-methanesulfonyl-pyrrolidin-2-yl)-5-methoxy-benzofuran-3-carboxylic acid methylamide]	0.349 µM
CCN(c1cc2oc(-c3ccc(Oc4ccc(F)cc4)cc3)c(C(=O)NC)c2cc1C1CC1)S(C)(=O)=O [Compound I-42]	0.143 µM
CNC(=O)c1c(-c2ccc(Oc3ccc(F)cc3)cc2)oc2cc(N(CCN)C(C)=O)c(OC)cc12 [Compound I-54]	1.24 µM
CNC(=O)c1c(-c2ccc(Nc3ccc(F)cc3)cc2)oc2cc(N(CCO)S(C)(=O)=O)c(OC(C)C)cc12 [Compound I-31]	0.092 µM
CCCc1cc2c(C(=O)NC)c(-c3ccc(Oc4ccccc4F)cc3)oc2cc1N(CCO)S(C)(=O)=O [Compound I-65, 2-[4-(2-Fluoro-phenoxy)-phenyl]-6-[(2-hydroxy-ethyl)-methanesulfonyl-amino]-5-propyl-benzofuran-3-carboxylic acid methylamide]	0.021 µM
CNC(=O)c1c(-c2ccc(Nc3ccc(F)c(F)c3)cc2)oc2cc(N(CCO)S(C)(=O)=O)c(OC)cc12 [Compound I-10]	0.065 µM
CNC(=O)c1c(-c2ccc(Oc3ccccc3F)cc2)oc2cc(N(CCO)S(C)(=O)=O)c(OC)cc12 [Compound I-9]	0.085 µM
